Data as given in ChEMBL document CHEMBL1949529, “Substrate specificity of acetoxy derivatives of coumarins and quinolones towards Calreticulin mediated transacetylation: investigations on antiplatelet function” (Bioorg Med Chem, 2012).
One block for each compound: values may come before it. Calls of active or inactive are those of the source. The rule behind the calls is not given here.

Experiments:
[1] = Inhibition of platelet CRTAase assessed as inhibition of platelet aggregation at 50 uM by spectrophotometry
[2] = system: Platelet; assay: Enhancement of nitric oxide production in human platelet rich plasma at 100 uM preincubated for 10 mins before ADP addition by DCFH-DA-based flow cytometry; assay type: functional, cell-free
[3] = (§1) Antiplatelet activity in human platelet rich plasma assessed as inhibition of ADP-induced aggregation compound preincubated for 10 mins before ADP addition by aggregometry method; assay type: functional, cell-free
[4] = system: Platelet; assay: as §1; assay type: functional, cell-free
[5] = (§2) Antiplatelet activity in human platelet rich plasma assessed as inhibition of arachidonic acid-induced aggregation preincubated for 10 mins before arachidonic acid challenge by aggregometry method; assay type: functional, cell-free
[6] = system: Platelet; assay: as §2; assay type: functional, cell-free
[7] = system: Rattus norvegicus; assay: Antiplatelet activity in ADP-induced platelet aggregation po dosed Sprague-Dawley rat blood compound treated for 24 hrs before ADP challenge by aggregometry method; assay type: functional, organism-based
[8] = system: Rattus norvegicus; assay: Antiplatelet activity in arachidonic acid-induced platelet aggregation po dosed Sprague-Dawley rat blood compound treated for 24 hrs before ADP challenge by aggregometry method; assay type: functional, organism-based
[9] = system: Rattus norvegicus; assay: Inhibition of COX1 activity in TMPD/arachidonic acid-stimulated blood of Sprague-Dawley rat at 160.2 umol/kg, po after 24 hrs by ELISA relative to control; assay type: functional
[10] = system: Rattus norvegicus; assay: Inhibition of TxB2 production in arachidonic acid-stimulated blood of Sprague-Dawley rat assessed per mg of protein at 160.2 umol/kg, po, measured after 24 hrs by ELISA (reference value: 85.4 pg/mg of protein); assay type: functional
[11] = system: Rattus norvegicus; assay: Inhibition of LPS-induced tissue factor expression in Sprague-Dawley rat PBMC at 160.2 umol/kg, po for 5 days by ELISA relative to control; assay type: functional
[12] = system: PBMC; assay: Inhibition of LPS-induced iNOS expression in Sprague-Dawley rat PBMC at 160.2 umol/kg, po for 5 days before LPS challenge by Western blot analysis; assay type: functional, organism-based
[13] = system: Rattus norvegicus; assay: Inhibition of ADP-induced platelet aggregation in Sprague-Dawley rat blood at 125.3 umol/kg, po treated for 24 hrs before ADP challenge by aggregometry method; assay type: functional
[14] = system: Rattus norvegicus; assay: Inhibition of arachidonic acid-induced aggregation in Sprague-Dawley rat blood at 50.6 umol/kg, po treated for 24 hrs before arachidonic acid challenge by aggregometry method; assay type: functional

SMILES: CC(=O)Nc1ccc2c(C(F)(F)F)cc(=O)oc2c1
- inhibition [1]: Active

SMILES: CC(=O)Oc1ccc2c(C(F)(F)F)cc(=O)[nH]c2c1
- inhibition [1]: Active

SMILES: CCCCCCCCCCc1c(C)c2ccc(NC(C)=O)cc2oc1=O
- inhibition [1]: Active

SMILES: CC(=O)Oc1ccc2[nH]c(=O)cc(C(F)(F)F)c2c1
- inhibition [1]: Active

SMILES: CC(=O)Nc1ccc2c(C(F)(F)F)cc(=O)[nH]c2c1
- inhibition [1]: Active

SMILES: CC(=O)Nc1ccc2c(C)cc(=O)[nH]c2c1
- inhibition [1]: Active

SMILES: CCCCc1c(C)c2cc(OC(C)=O)ccc2[nH]c1=O
- inhibition [1]: Active

SMILES: CCCCCCCCc1c(C)c2cc(OC(C)=O)ccc2[nH]c1=O
- inhibition [1]: Active

SMILES: CC(=O)Nc1ccc2c(C)cc(=O)oc2c1
- inhibition [1]: Active
- Activity [2]: Active
- IC50 [3]: 145 µM
- inhibition [4]: Dose-dependent effect
- IC50 [5]: 77 µM
- inhibition [6]: Dose-dependent effect
- Activity [7]: Dose-dependent effect
- IC50 [7]: 125.3 µmol/kg
- Activity [8]: Dose-dependent effect
- fold change (FC) [9]: 3.34
- fold change (FC) [10]: 0.39
- fold change (FC) [11]: 1.93
- inhibition [12]: Active

SMILES: CC(=O)Oc1ccccc1C(=O)O [ASPIRIN]
- IC50 [5]: 80 µM
- inhibition in vivo at 125.3 µmol/kg [13]: 52%
- inhibition in vivo at 50.6 µmol/kg [14]: 55%
- inhibition [9]: Active
- fold change (FC) [10]: 0.42
- fold change (FC) [11]: 4.95
- inhibition [12]: inactive

SMILES: CCCCCCCCCCc1c(C)c2cc(OC(C)=O)ccc2[nH]c1=O
- inhibition [1]: Active

Second part, the compound after the results:

- inhibition [1]: Active
SMILES: CCCCCCc1c(C)c2ccc(NC(C)=O)cc2oc1=O

- inhibition [1]: Active
SMILES: CCc1c(C)c2ccc(NC(C)=O)cc2[nH]c1=O

- inhibition [1]: inactive
SMILES: CC(=O)Oc1ccc2c(C)cc(=O)oc2c1C(C)=O

- inhibition [1]: inactive
SMILES: CCc1c(C)c2cc(C(C)=O)c(OC(C)=O)cc2oc1=O

- inhibition [1]: Active
SMILES: CCc1c(C)c2ccc(NC(C)=O)cc2oc1=O

- inhibition [1]: inactive
SMILES: CC(=O)Oc1cc2oc(=O)cc(C)c2cc1C(C)=O

- inhibition [1]: inactive
SMILES: CCc1c(C)c2ccc(OC(C)=O)c(C(C)=O)c2oc1=O
